The values that follow come from ChEMBL document CHEMBL3751689, “Synthesis and biological properties of prodrugs of (S)-3-(adenin-9-yl)-2-(phosphonomethoxy)propanoic acid” (Eur J Med Chem, 2016).

The source made the active and inactive calls. The rule behind the calls is not given here.

The subject of series [1] is Hepatitis C virus. Put plainly: Antiviral activity against HCV genotype 2a replicon infected in HuH7 cells after 3 days by renilla luciferase assay. It counts as functional, organism-based. The settings on record: for Activity: Hepacivirus hominis, Huh-7; for EC50: Huh-7, 72 h. (In general: Replicon systems follow genome replication, usually without infectious particles.)

Series [2] deals with Hepatitis C virus. Kind of series: Antiviral activity against HCV genotype 1a replicon infected in human HuH7 cells after 3 days by renilla luciferase assay. The class given is functional, organism-based. Conditions: subtype 1a; for Activity: Hepacivirus hominis, Huh-7; for EC50: Huh-7, 72 h.
For series [3], the system named is Hepatitis C virus. Put plainly: Antiviral activity against HCV genotype 1b replicon infected in HuH7 cells after 3 days by renilla luciferase assay. It counts as functional, organism-based. Conditions: for Activity: Hepacivirus hominis, Huh-7; for EC50: Huh-7, 72 h.
The subject of a further series is Bordetella pertussis. Kind of series: Inhibition of Bordetella pertussis CyaA in mouse J774A.1 cells assessed as cAMP formation at 10 uM by immunoassay relative to control. It counts as cell-based. The settings on record: values are per cent of control. (In general: Changes in cAMP serve as a functional read-out for many G protein-coupled receptors.)
Series [4] has as its system Human immunodeficiency virus 1. Put plainly: Antiviral activity against HIV1 infected in MT4 cells. The class given is functional, organism-based. The settings on record: Human immunodeficiency virus 1, MT4.
Series [5] is described as follows: Cytotoxicity against human HeLa cells. It counts as cell-based.
Series [6] can be described thus: Cytotoxicity against human HuH7 infected with HCV genotype 1a cells after 3 days by calcein-AM dye based fluorescence analysis. The settings on record: HuH7 cells infected with HCV genotype 1a. The class given is cell-based, Huh-7.
A further series concerns Human rhinovirus 1A. Kind of series: Antiviral activity against HRV1A infected in HeLa cells. The class given is functional, organism-based.
Series [7] is described as follows: Cytotoxicity against human HuH7 infected with HCV genotype 2a cells after 3 days by calcein-AM dye based fluorescence analysis. It counts as cell-based, Huh-7. Conditions: HuH7 cells infected with HCV genotype 2a.
A short description of series [8]: Cytotoxicity against human HuH7 infected with HCV genotype 1b cells after 3 days by calcein-AM dye based fluorescence analysis. It counts as cell-based, Huh-7. The settings on record: HuH7 cells infected with HCV genotype 1b.
Series [9] in a line: Cytotoxicity against human MT4 cells. The class given is cell-based.
Series [10] can be described thus: Selectivity index, ratio of CC50 for human HuH7 cells to EC50 for HCV genotype 2a. On the set-up: species or system Huh-7.
A short description of series [11]: Selectivity index, ratio of CC50 for human HuH7 cells to EC50 for HCV genotype 1b. More on the design: species or system Huh-7.
A short description of series [12]: Selectivity index, ratio of CC50 for human HuH7 cells to EC50 for HCV genotype 1a. More on the design: species or system Huh-7.

As usually defined, the residual activity is the signal under treatment as a percentage of the control signal. Consider `COC(=O)[C@H](Cn1cnc2c(N)ncnc21)OCP(=O)(O)O`, for which the outcome with Hepatitis C virus [1], with Hepatitis C virus [2] and in the series with Hepatitis C virus [3] was inactive. Moreover, in the series on Bordetella pertussis, the residual activity was found to be 90%.
Turning to `NC(=O)[C@H](Cn1cnc2c(N)ncnc21)OCP(=O)(O)O`, the result in the series with Hepatitis C virus [1], in the series on Hepatitis C virus [2] and with Hepatitis C virus [3] was inactive. Also, the residual activity with Bordetella pertussis was determined as 66%.
One may read the EC50 as the concentration at which the effect is half-maximal. Read a low EC50 as a more potent agent. Usually CC50 stands for the concentration that lowers cell viability or growth by half. Turning to `Nc1ncnc2c1ncn2C[C@H](OCP(=O)(O)O)C(=O)O`, the EC50 in the series on Hepatitis C virus [1] was greater than 44.4 µM; in the series with Hepatitis C virus [2] it was greater than 44.4 µM; in series [4], greater than 53.2 µM; in the series with Hepatitis C virus [3], greater than 44.4 µM; with Human rhinovirus 1A it was greater than 50 µM. Also, the CC50 in [5] is greater than 50 µM; in [9], greater than 53.2 µM. In addition, the CC50 at 72 h in [6], in series [7] and in series [8] was greater than 44.4 µM throughout.
In the case of `CCOC(=O)[C@H](Cc1ccccc1)NP(=O)(CO[C@@H](Cn1cnc2c(N)ncnc21)C(=O)OC)Oc1ccccc1` (some centres not stated), the “Ratio CC50/EC50” value in [10], in series [11] and in series [12] was 30 throughout. The EC50 in the series on Hepatitis C virus [1] is 0.6 µM; in the series with Hepatitis C virus [2], 0.8 µM; in series [4], greater than 53.2 µM; in the series on Hepatitis C virus [3] it was 1.5 µM; in the series with Human rhinovirus 1A, greater than 50 µM. Also, the values for the cytotoxic concentration (CC50) in [5] and in series [9] were greater than 50 µM and 1.4 µM, respectively. Also, the CC50 at 72 h in series [6] is 42.6 µM; in series [7] it was 25.3 µM; in series [8] it was greater than 44.4 µM. Moreover, the residual activity with Bordetella pertussis worked out at 68%.
Regarding `CCOC(=O)[C@H](Cc1ccccc1)NP(=O)(CO[C@@H](Cn1cnc2c(N)ncnc21)C(=O)OC)N[C@@H](Cc1ccccc1)C(=O)OCC`, the “Ratio CC50/EC50” value in [10], in series [11] and in [12] was 30 throughout. The EC50 is 0.6 µM in the series with Hepatitis C virus [1]; 0.6 µM with Hepatitis C virus [2]; greater than 53.2 µM in [4]; 1.1 µM in the series on Hepatitis C virus [3]; greater than 50 µM in the series with Human rhinovirus 1A. For the same molecule, the CC50 in [5] was greater than 50 µM; in series [9] it was 0.7 µM. In addition, the CC50 at 72 h was 18.3 µM in series [6], 12.6 µM in series [7] and 30.4 µM in series [8]. Also, the residual activity in the series on Bordetella pertussis was found to be 112%.
In the case of `Nc1ncnc2c1ncn2C[C@H](OCP(=O)(O)O)C(=O)NC1CC1`, the outcome with Hepatitis C virus [1], in the series with Hepatitis C virus [2] and in the series with Hepatitis C virus [3] was inactive. Moreover, the residual activity in the series with Bordetella pertussis came to 135%.
For `CCCCCCCCCCCCCCCCOCCCOP(=O)(O)CO[C@@H](Cn1cnc2c(N)ncnc21)C(=O)OC`, the EC50 in the series on Hepatitis C virus [1] is 9.6 µM; in the series on Hepatitis C virus [2], 20.6 µM; in [4], greater than 53.2 µM; in the series with Hepatitis C virus [3] it was 30.9 µM; in the series with Human rhinovirus 1A, greater than 50 µM. Further, the CC50 in series [5] is greater than 50 µM; in series [9] it was 3.7 µM. For the same molecule, the CC50 at 72 h in series [6], in series [7] and in series [8] was greater than 44.4 µM throughout. Also, in the series on Bordetella pertussis, the residual activity was determined as 140%.
With `CCOC(=O)[C@H](C)NC(=O)[C@H](Cn1cnc2c(N)ncnc21)OCP(=O)(N[C@@H](C)C(=O)OCC)N[C@@H](C)C(=O)OCC`, the EC50 in the series with Hepatitis C virus [1] is greater than 44.4 µM; with Hepatitis C virus [2] it was greater than 44.4 µM; in [4], greater than 53.2 µM; with Hepatitis C virus [3], greater than 44.4 µM; in the series with Human rhinovirus 1A, greater than 50 µM. Further, the CC50 was greater than 50 µM in series [5] and greater than 53.2 µM in series [9]. Moreover, the CC50 at 72 h in [6], in series [7] and in series [8] was greater than 44.4 µM in each case.
For the molecule `CCOC(=O)[C@H](C)NP(=O)(CO[C@@H](Cn1cnc2c(N)ncnc21)C(=O)OC)N[C@@H](C)C(=O)OCC`, the EC50 was 39.2 µM with Hepatitis C virus [1]; greater than 44.4 µM with Hepatitis C virus [2]; greater than 53.2 µM in [4]; greater than 44.4 µM in the series with Hepatitis C virus [3]; greater than 50 µM in the series with Human rhinovirus 1A. For the same molecule, the CC50 was greater than 50 µM in series [5] and 40.5 µM in series [9]. The CC50 at 72 h in [6], in series [7] and in [8] was greater than 44.4 µM each time. The residual activity with Bordetella pertussis amounted to 139%.
